In patent publication US6368598B1, “Drug complex for treatment of metastatic prostate cancer” (priority 1996, dated 2002):
Residues, ends and D or L forms follow the SMILES beside them. *: point of attachment. pNA = O=[N+]([O-])c1ccc(N*)cc1; MeOSuc = COC(=O)CCC(=O)*

Assays:
[1] = after administration to a person; cited from earlier work
[2] = test system: pumps of erythrocytes, plasma, or mitochondrial membranes; conditions: cited from earlier work
[3] = test system: DU-145 prostate cancer cells; assay: Effect of TG and RT on proliferation of DU-145 prostate cancer cells (cell count, trypan blue); format: cell-based, human; conditions: for Total Number of Cells per Dish: counted at 48 hours
[4] = test system: rat and human androgen independent prostate cancer cell lines; conditions: 500 nm thapsigargin, cited from earlier work
[5] = test system: PC3 cells; assay: Effect of TG and RT on clonogenic survival of PC3 cells; format: cell-based, human; conditions: for Surviving Fraction (SF) (PE treated/PE control): plated at 24 hours
Protocol: PC3 and DU-145 androgen-independent human prostate cancer cell lines obtained from the American Tissue Culture Collection (ATCC) are used for in vitro studies. Cells are grown as monolayer cultures in RPMI 1640 medium supplemented with 10% fetal bovine serum, 2 mM glutamine and antibiotics. Radiation survival curves and radiation-induced apoptotic DNA fragmentation patterns in these cell lines are already established in the laboratory. Cells are treated with this drug, carrier-peptide, or carrier-peptide-drug complex with or without radiation. After 24 hours, the cells are trypsinized and plated for clonogenic survival studies. Apoptotic response to the treatments is determined by: 1) agarose gel electrophoresis analysis of DNA fragmentation at 48 and 72 hours after treatment, 2) morphological observations after staining with DAPI, and 3) terminal deoxytransferase-mediated dUTP Nick End Labeling (TUNEL) assay.

[6] = test system: Ca++-ATPase pumps of the endoplasmic reticulum; conditions: cited from earlier work
[7] = test system: human DU-145 prostate carcinoma xenograft; assay: Growth delay of human DU-145 prostate carcinoma xenograft in male SCID mice; format: in vivo
Protocol: Two human prostate carcinoma tumor lines grown as xenografts in male SCID mice are used: the human DU-145 prostate carcinoma which is not androgen dependent and the human LNCaP prostate carcinoma which produces PSA and has a well characterized androgen receptor and response to androgens. The drug complexes are administered up to maximally tolerated doses alone and in conjunction with fractionated radiation therapy (^137Cs Gamma Cell 40) delivered to the tumor bearing limb.
The progress of each tumor is assessed thrice weekly by caliper measurements until the tumors reach 2000 mm^3. Tumor growth delay is calculated as the number of days for each tumor to reach a volume of 500 mm^3 as compared to untreated controls. The efficacy of combination treatments is assessed using isobologram analysis for determination of additivity/synergy.
Male SCID mice bearing the human DU-145 prostate carcinoma Xenograft growing subcutaneously in a hind-limb were treated daily with TG (0.5 mg/kg) by IP injection from day 4-18 post tumor cell implantation. Some animal groups also received fractionated RT locally to the tumor bearing region on days 7-11 or days 7-11 and 14-18.

[8] = Cleavage in pooled human serum; format: in vitro ADME
Protocol: (§1) A tyrosine tripeptide (compound 1 in FIG. 5) was prepared using methods known to those in the peptide chemistry art. It is known that PSA cleaves its para-nitroanilide (pNA) derivative at the tyrosine site (compound 2 in FIG. 5). (Christensson, A. et al., Eur. J Biochem., 194:755-763 (1990)). It is also known that the “released” pNA makes it possible to study this reaction colormetrically.

[9] = Cleavage in newborn calf serum; format: in vitro ADME
Protocol: as §1

Q: With `NCCCCNCCCF` [N-3 fluoropropylputrescine] as the molecule, how does the “distribution to prostate and bone relative to blood and muscle” value [1] read?
A: Its value is “selectively distributed to prostate and bone”.

Q: Which “inhibition of pumps of erythrocytes, plasma, or mitochondrial membranes” value [2] does the source give for `C/C=C(/C)C(=O)O[C@H]1C(C)=C2[C@H]([C@@H]1OC(=O)CCCCCCC)[C@@](C)(OC(C)=O)C[C@H](OC(=O)CCC)[C@@]1(O)[C@H]2OC(=O)[C@@]1(C)O` [Thapsigargin] here?
A: The value was “not”.

Q: What about the “Total Number of Cells per Dish” value ([3]; TG 20 nM, 0 Gy) of the same molecule?
A: The value was 1.0 10^6.

Q: What about the “Total Number of Cells per Dish” value ([3]; TG 20 nM, 2 Gy 2 hours after TG) of the same molecule?
A: Its value is 0.8 10^6.

Q: And the “Total Number of Cells per Dish” value ([3]; TG 20 nM, 4 Gy 2 hours after TG)?
A: Its value is 0.3 10^6.

Q: And the “Total Number of Cells per Dish” value ([3]; TG 20 nM, 8 Gy 2 hours after TG)?
A: The value was 0.4 10^6.

Q: And the “Total Number of Cells per Dish” value ([3]; TG 100 nM, 0 Gy)?
A: The value was 0.7 10^6.

Q: And the “Total Number of Cells per Dish” value ([3]; TG 100 nM, 2 Gy 2 hours after TG)?
A: The value was 0.5 10^6.

Q: What about the “Total Number of Cells per Dish” value ([3]; TG 100 nM, 4 Gy 2 hours after TG) of the same molecule?
A: Its value is 0.5 10^6.

Q: What about the “Total Number of Cells per Dish” value ([3]; TG 100 nM, 8 Gy 2 hours after TG) of the same molecule?
A: Its value is 0.4 10^6.

Q: And the “Total Number of Cells per Dish” value ([3]; TG 400 nM, 0 Gy)?
A: The value was 0.7 10^6.

Q: What about the “Total Number of Cells per Dish” value ([3]; TG 400 nM, 2 Gy 2 hours after TG) of the same molecule?
A: Its value is 0.4 10^6.

Q: What about the “Total Number of Cells per Dish” value ([3]; TG 400 nM, 4 Gy 2 hours after TG) of the same molecule?
A: The value was 0.3 10^6.

Q: What about the “Total Number of Cells per Dish” value ([3]; TG 400 nM, 8 Gy 2 hours after TG) of the same molecule?
A: The value was 0.3 10^6.

Q: What about the “cell proliferation in vitro (result in words)” value ([3]; summary of Table 1) of the same molecule?
A: The value was “inhibits cell proliferation in vitro”.

Q: What about the apoptosis ([4]; within 72 to 96 hours) of the same molecule?
A: Its apoptosis is “undergo apoptosis”.

Q: What about the clonogenic potential ([4]; within 72 to 96 hours) of the same molecule?
A: The clonogenic potential was “lose their clonogenic potential”.

Q: And the “intracellular Ca++” value ([4]; lines with or without p53 expression)?
A: Its value is “elevation of intracellular Ca^++”.

Q: And the “Surviving Fraction (SF) (PE treated/PE control)” value (from here on “Surviving Fraction (SF)”) ([5]; TG 20 nM, 0 Gy)?
A: The value was 0.69.

Q: What about the “NET survival (SF/TG toxicity)” value ([5]; TG 20 nM, 2 Gy) of the same molecule?
A: Its value is 0.61.

Q: What about the “Surviving Fraction (SF)” value ([5]; TG 20 nM, 2 Gy) of the same molecule?
A: Its value is 0.42.

Q: And the “NET survival (SF/TG toxicity)” value ([5]; TG 20 nM, 4 Gy)?
A: Its value is 0.33.

Q: What about the “Surviving Fraction (SF)” value ([5]; TG 20 nM, 4 Gy) of the same molecule?
A: Its value is 0.23.

Q: And the “Surviving Fraction (SF)” value ([5]; TG 50 nM, 0 Gy)?
A: Its value is 0.80.

Q: What about the “NET survival (SF/TG toxicity)” value ([5]; TG 50 nM, 2 Gy) of the same molecule?
A: Its value is 0.49.

Q: And the “Surviving Fraction (SF)” value ([5]; TG 50 nM, 2 Gy)?
A: The value was 0.39.

Q: And the “NET survival (SF/TG toxicity)” value ([5]; TG 50 nM, 4 Gy)?
A: The value was 0.29.

Q: And the “Surviving Fraction (SF)” value ([5]; TG 50 nM, 4 Gy)?
A: Its value is 0.23.

Q: What about the “Surviving Fraction (SF)” value ([5]; TG 100 nM, 0 Gy) of the same molecule?
A: The value was 0.62.

Q: And the “NET survival (SF/TG toxicity)” value ([5]; TG 100 nM, 2 Gy)?
A: Its value is 0.40.

Q: What about the “Surviving Fraction (SF)” value ([5]; TG 100 nM, 2 Gy) of the same molecule?
A: Its value is 0.25.

Q: What about the “NET survival (SF/TG toxicity)” value ([5]; TG 100 nM, 4 Gy) of the same molecule?
A: Its value is 0.30.

Q: What about the “Surviving Fraction (SF)” value ([5]; TG 100 nM, 4 Gy) of the same molecule?
A: The value was 0.18.

Q: What about the “Surviving Fraction (SF)” value ([5]; TG 200 nM, 0 Gy) of the same molecule?
A: The value was 0.58.

Q: What about the “NET survival (SF/TG toxicity)” value ([5]; TG 200 nM, 2 Gy) of the same molecule?
A: Its value is 0.43.

Q: What about the “Surviving Fraction (SF)” value ([5]; TG 200 nM, 2 Gy) of the same molecule?
A: Its value is 0.25.

Q: And the “NET survival (SF/TG toxicity)” value ([5]; TG 200 nM, 4 Gy)?
A: The value was 0.22.

Q: What about the “Surviving Fraction (SF)” value ([5]; TG 200 nM, 4 Gy) of the same molecule?
A: Its value is 0.13.

Q: And the “Surviving Fraction (SF)” value ([5]; TG 400 nM, 0 Gy)?
A: The value was 0.60.

Q: What about the “NET survival (SF/TG toxicity)” value ([5]; TG 400 nM, 2 Gy) of the same molecule?
A: The value was 0.42.

Q: And the “Surviving Fraction (SF)” value ([5]; TG 400 nM, 2 Gy)?
A: Its value is 0.25.

Q: And the “NET survival (SF/TG toxicity)” value ([5]; TG 400 nM, 4 Gy)?
A: Its value is 0.22.

Q: What about the “Surviving Fraction (SF)” value ([5]; TG 400 nM, 4 Gy) of the same molecule?
A: Its value is 0.13.

Q: And the “clonogenic cell survival in vitro (result in words)” value ([5]; summary of Table 2)?
A: Its value is “inhibits clonogenic cell survival in vitro”.

Q: What about the “inhibition of Ca++-ATPase pumps of the endoplasmic reticulum” value [6] of the same molecule?
A: Its value is “specifically inhibits”.

Q: What about the “tumor growth delay, combination with RT” value ([7]; TG 0.5 mg/kg daily IP day 4-18 with fractionated RT days 7-11) of the same molecule?
A: The value was “the independent effects of TG and RT were additive”.

Q: What about the “tumor growth delay, combination with RT extended to 2 weeks” value ([7]; TG 0.5 mg/kg daily IP day 4-18 with fractionated RT days 7-11 and 14-18) of the same molecule?
A: The value was “the additional benefit of the TG administration was maintained”.

Q: What about the tumor growth delay ([7]; TG 0.5 mg/kg daily IP, day 4-18, alone, FIG. 1) of the same molecule?
A: Its tumor growth delay is “produced a measurable tumor growth delay”.

Q: With `COC(=O)CCC(=O)N[C@@H](CCCNC(=N)N)C(=O)N1CCC[C@H]1C(=O)N[C@@H](Cc1ccc(O)cc1)C(=O)Nc1ccc([N+](=O)[O-])cc1` [compound 2] (MeOSuc-Arg-Pro-Tyr-pNA) as the molecule, how does the “cleavage, release of pNA” value [8] read?
A: The value was “neither newborn calf serum, nor pooled human serum cleaved”.

Q: And the “cleavage, release of pNA” value [9]?
A: The value was “neither newborn calf serum, nor pooled human serum cleaved”.
